Measured values: PubChem BioAssay AID248 (DTP/NCI, 2004)
Toxic doses and inconclusive results are not listed. Cut-off read from the data, not from the text of the source: active = T/C of 150% or more; inactive = T/C below 125%.

System: L1210 leukemia ip in BDF1 mice, survival T/C
Assay: NCI In Vivo Anticancer Drug Screen. Data for tumor model L1210 Leukemia (intraperitoneal) in B6D2F1 (BDF1) mice
Details: endpoint: mean survival time, higher = longer survival
Summary of the method: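 Antitumor effect is assessed in tumor-bearing animals. Survival in the compound arm is compared with a vehicle-dosed control arm and expressed as their quotient.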

[1] = dose: 75.0 mg/kg/injection, schedule: Q01DX001 (ip), vehicle: Klucel (hydroxypropylcellulose) (HPC)
[2] = dose: 150.0 mg/kg/injection, schedule: Q01DX001 (ip), vehicle: Klucel (hydroxypropylcellulose) (HPC)
[3] = dose: 100.0 mg/kg/injection, schedule: Q04DX003 (ip), vehicle: saline with Tween-80
[4] = dose: 200.0 mg/kg/injection, schedule: Q04DX003 (ip), vehicle: saline with Tween-80
[5] = dose: 100.0 mg/kg/injection, schedule: Q04DX002 (ip), vehicle: Klucel (hydroxypropylcellulose) (HPC)
[6] = dose: 200.0 mg/kg/injection, schedule: Q04DX002 (ip), vehicle: Klucel (hydroxypropylcellulose) (HPC)
[7] = dose: 400.0 mg/kg/injection, schedule: Q04DX002 (ip), vehicle: Klucel (hydroxypropylcellulose) (HPC)
[8] = dose: 100.0 mg/kg/injection, schedule: Q01DX001 (ip), vehicle: saline
[9] = dose: 200.0 mg/kg/injection, schedule: Q01DX001 (ip), vehicle: saline
[10] = dose: 100.0 mg/kg/injection, schedule: Q04DX003 (ip), vehicle: Klucel (hydroxypropylcellulose) (HPC)
[11] = dose: 200.0 mg/kg/injection, schedule: Q04DX003 (ip), vehicle: Klucel (hydroxypropylcellulose) (HPC)
[12] = dose: 400.0 mg/kg/injection, schedule: Q04DX003 (ip), vehicle: Klucel (hydroxypropylcellulose) (HPC)
[13] = dose: 100.0 mg/kg/injection, schedule: Q01DX009 (ip), vehicle: Klucel (hydroxypropylcellulose) (HPC)
[14] = dose: 200.0 mg/kg/injection, schedule: Q01DX009 (ip), vehicle: Klucel (hydroxypropylcellulose) (HPC)
[15] = dose: 400.0 mg/kg/injection, schedule: Q01DX009 (ip), vehicle: Klucel (hydroxypropylcellulose) (HPC)

Measured: T/C

O=C(O)c1cc(-c2ccc3cc4c(cc3c2)OCO4)nc2ccccc12
inactive: dose: 75.0 mg/kg/injection, schedule: Q01DX001 (ip), vehicle: saline 97 % of control | dose: 150.0 mg/kg/injection, schedule: Q01DX001 (ip), vehicle: saline 101 % of control | dose: 300.0 mg/kg/injection, schedule: Q01DX001 (ip), vehicle: saline 93 % of control

COc1ccccc1-n1c(=O)c(N=Nc2ccc(Br)cc2)c(O)n(-c2ccccc2Cl)c1=S
inactive: dose: 37.5 mg/kg/injection, schedule: Q01DX001 (ip), vehicle: Klucel (hydroxypropylcellulose) (HPC) 107 % of control | [1] 116 % of control | [2] 98 % of control

O=c1ccc(=O)n(-c2ccc(Cl)cc2)[nH]1
inactive: dose: 50.0 mg/kg/injection, schedule: Q04DX003 (ip), vehicle: saline with Tween-80 103 % of control | [3] 104 % of control | [4] 98 % of control

O=[N+]([O-])c1ccc(CBr)c(I)c1
inactive: dose: 75.0 mg/kg/injection, schedule: Q01DX001 (ip), vehicle: other 98 % of control | dose: 150.0 mg/kg/injection, schedule: Q01DX001 (ip), vehicle: other 102 % of control | dose: 300.0 mg/kg/injection, schedule: Q01DX001 (ip), vehicle: other 94 % of control

C=CCNc1cc(NN)nn2nnnc12
inactive: [5] 108 % of control | [6] 104 % of control | [7] 123 % of control

CS(=O)(=O)OCC1OC(c2ccccc2)OC(C(CBr)OS(C)(=O)=O)C1OS(C)(=O)=O (stereo not given)
inactive: [5] 97 % of control | [6] 93 % of control | [7] 93 % of control

NC(Cc1nn[nH]n1)C(=O)O (stereo not given)
inactive: dose: 100.0 mg/kg/injection, schedule: Q01DX009 (ip), vehicle: water 102 % of control | dose: 100.0 mg/kg/injection, schedule: Q04DX003 (ip), vehicle: water 96 % of control | dose: 200.0 mg/kg/injection, schedule: Q01DX009 (ip), vehicle: water 102 % of control | dose: 200.0 mg/kg/injection, schedule: Q04DX003 (ip), vehicle: water 94 % of control | dose: 400.0 mg/kg/injection, schedule: Q01DX009 (ip), vehicle: water 98 % of control | dose: 400.0 mg/kg/injection, schedule: Q04DX003 (ip), vehicle: water 88 % of control

NSc1ccc([N+](=O)[O-])cc1
inactive: dose: 12.5 mg/kg/injection, schedule: Q01DX001 (ip), vehicle: other 102 % of control | dose: 25.0 mg/kg/injection, schedule: Q01DX001 (ip), vehicle: other 97 % of control | dose: 50.0 mg/kg/injection, schedule: Q01DX001 (ip), vehicle: other 101 % of control | [8] 96 % of control | [9] 97 % of control | dose: 400.0 mg/kg/injection, schedule: Q01DX001 (ip), vehicle: saline 103 % of control

CNCC(N)=O
inactive: dose: 50.0 mg/kg/injection, schedule: Q01DX001 (ip), vehicle: carboxymethylcellulose (CMC) 108 % of control | dose: 100.0 mg/kg/injection, schedule: Q01DX001 (ip), vehicle: carboxymethylcellulose (CMC) 105 % of control | dose: 200.0 mg/kg/injection, schedule: Q01DX001 (ip), vehicle: carboxymethylcellulose (CMC) 98 % of control | dose: 400.0 mg/kg/injection, schedule: Q01DX001 (ip), vehicle: carboxymethylcellulose (CMC) 95 % of control

CCn1c(=O)c2ccccc2c2cc([N+](=O)[O-])ccc21
inactive: [10] 90 % of control | [11] 97 % of control | [12] 97 % of control

O=C(O)CSCCc1ccccc1
inactive: [13] 105 % of control | [10] 106 % of control | [14] 94 % of control | [11] 105 % of control | [15] 100 % of control | [12] 100 % of control

CCCCCC(NC(=O)CCl)C(=O)O (stereo not given)
inactive: [13] 91 % of control | [14] 96 % of control | [15] 92 % of control

CNc1nc(Cl)cc2c1ncn2C1OC(CO)C(O)C1O (stereo not given)
inactive: dose: 100.0 mg/kg/injection, schedule: Q01DX005 (ip), vehicle: saline 100 % of control | dose: 200.0 mg/kg/injection, schedule: Q01DX005 (ip), vehicle: saline 100 % of control

C[N+](C)(C)CCCS(=O)(=O)[O-]
inactive: dose: 50.0 mg/kg/injection, schedule: Q01DX001 (sc), vehicle: saline 98 % of control | dose: 100.0 mg/kg/injection, schedule: Q01DX001 (sc), vehicle: saline 98 % of control | dose: 100.0 mg/kg/injection, schedule: Q04DX002 (ip), vehicle: saline 100 % of control | dose: 200.0 mg/kg/injection, schedule: Q01DX001 (sc), vehicle: saline 109 % of control | dose: 200.0 mg/kg/injection, schedule: Q04DX002 (ip), vehicle: saline 111 % of control | dose: 400.0 mg/kg/injection, schedule: Q01DX001 (sc), vehicle: saline 98 % of control | dose: 400.0 mg/kg/injection, schedule: Q04DX002 (ip), vehicle: saline 95 % of control

C1=C(c2ccccc2)c2ccccc2CC1
inactive: dose: 50.0 mg/kg/injection, schedule: Q01DX001 (ip), vehicle: saline 96 % of control | [8] 102 % of control | [9] 106 % of control

COc1ccc(N(N=Nc2ccccc2)C(C)=O)cc1
inactive: dose: 40.0 mg/kg/injection, schedule: Q01DX009 (ip), vehicle: Klucel (hydroxypropylcellulose) (HPC) 96 % of control | [1] 96 % of control | dose: 75.0 mg/kg/injection, schedule: Q01DX009 (ip), vehicle: Klucel (hydroxypropylcellulose) (HPC) 101 % of control | [2] 90 % of control | dose: 150.0 mg/kg/injection, schedule: Q01DX009 (ip), vehicle: Klucel (hydroxypropylcellulose) (HPC) 112 % of control | dose: 300.0 mg/kg/injection, schedule: Q01DX001 (ip), vehicle: Klucel (hydroxypropylcellulose) (HPC) 86 % of control

Cc1c2c(n(C)c1C(=O)N1CCCCC1)CCCC2=O
inactive: dose: 75.0 mg/kg/injection, schedule: Q01DX001 (ip), vehicle: carboxymethylcellulose (CMC) 103 % of control | dose: 150.0 mg/kg/injection, schedule: Q01DX001 (ip), vehicle: carboxymethylcellulose (CMC) 101 % of control | dose: 300.0 mg/kg/injection, schedule: Q01DX001 (ip), vehicle: carboxymethylcellulose (CMC) 98 % of control

COc1ccc(COc2ccc(OC)cc2)cc1
inactive: [3] 95 % of control | [4] 96 % of control | dose: 400.0 mg/kg/injection, schedule: Q04DX003 (ip), vehicle: saline with Tween-80 98 % of control

COc1ccc(N2C(=O)OC3(CCN(Cc4ccccc4)CC3)C2=O)cc1
inactive: dose: 100.0 mg/kg/injection, schedule: Q01DX001 (ip), vehicle: Klucel (hydroxypropylcellulose) (HPC) 96 % of control | dose: 200.0 mg/kg/injection, schedule: Q01DX001 (ip), vehicle: Klucel (hydroxypropylcellulose) (HPC) 103 % of control | dose: 400.0 mg/kg/injection, schedule: Q01DX001 (ip), vehicle: Klucel (hydroxypropylcellulose) (HPC) 92 % of control

Oc1ccc(Br)cc1C=NC1CCCCC1
inactive: dose: 100.0 mg/kg/injection, schedule: Q04DX002 (ip), vehicle: other 90 % of control | dose: 200.0 mg/kg/injection, schedule: Q04DX002 (ip), vehicle: other 96 % of control | dose: 400.0 mg/kg/injection, schedule: Q04DX002 (ip), vehicle: other 90 % of control

Cc1cc(O)c(N=Nc2ccccc2)cc1C
inactive: [13] 102 % of control | [10] 101 % of control | [14] 96 % of control | [11] 96 % of control | [15] 96 % of control | [12] 92 % of control

NC(=O)c1[nH]cnc1[N+]1=NN(c2ccccc2)CC1
inactive: dose: 50.0 mg/kg/injection, schedule: Q01DX009 (ip), vehicle: saline 102 % of control | dose: 100.0 mg/kg/injection, schedule: Q01DX009 (ip), vehicle: saline 94 % of control | dose: 200.0 mg/kg/injection, schedule: Q01DX009 (ip), vehicle: saline 102 % of control
